These results are taken from ChEMBL document CHEMBL5465560, “Selectivity Literature for EUbOPEN Chemogenomic Library” (2024).

Test [1] concerns the target Serine/threonine-protein kinase VRK2 (Homo sapiens) (UniProt Q86Y07). As to conditions: at 10 µM.
In test [2] the target is T1, Aurora kinase C (Homo sapiens) (UniProt Q9UQB9).
T1 sequence (whole entry): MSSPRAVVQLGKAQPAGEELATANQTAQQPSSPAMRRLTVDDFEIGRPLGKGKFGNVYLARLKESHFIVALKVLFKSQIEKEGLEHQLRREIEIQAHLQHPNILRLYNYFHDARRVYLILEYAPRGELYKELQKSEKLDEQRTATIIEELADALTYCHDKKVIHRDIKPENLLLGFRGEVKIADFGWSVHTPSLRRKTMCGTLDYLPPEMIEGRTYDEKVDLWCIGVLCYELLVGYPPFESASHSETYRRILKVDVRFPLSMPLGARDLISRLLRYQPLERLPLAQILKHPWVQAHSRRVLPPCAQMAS
In words: Selectivity interaction (KinomeScan (DiscoverX)) EUB0001079a AURKC. Conditions: at 1 µM.

The target of test [3] is T2, Protein kinase C epsilon type (Homo sapiens) (UniProt Q02156).
T2 sequence (whole entry): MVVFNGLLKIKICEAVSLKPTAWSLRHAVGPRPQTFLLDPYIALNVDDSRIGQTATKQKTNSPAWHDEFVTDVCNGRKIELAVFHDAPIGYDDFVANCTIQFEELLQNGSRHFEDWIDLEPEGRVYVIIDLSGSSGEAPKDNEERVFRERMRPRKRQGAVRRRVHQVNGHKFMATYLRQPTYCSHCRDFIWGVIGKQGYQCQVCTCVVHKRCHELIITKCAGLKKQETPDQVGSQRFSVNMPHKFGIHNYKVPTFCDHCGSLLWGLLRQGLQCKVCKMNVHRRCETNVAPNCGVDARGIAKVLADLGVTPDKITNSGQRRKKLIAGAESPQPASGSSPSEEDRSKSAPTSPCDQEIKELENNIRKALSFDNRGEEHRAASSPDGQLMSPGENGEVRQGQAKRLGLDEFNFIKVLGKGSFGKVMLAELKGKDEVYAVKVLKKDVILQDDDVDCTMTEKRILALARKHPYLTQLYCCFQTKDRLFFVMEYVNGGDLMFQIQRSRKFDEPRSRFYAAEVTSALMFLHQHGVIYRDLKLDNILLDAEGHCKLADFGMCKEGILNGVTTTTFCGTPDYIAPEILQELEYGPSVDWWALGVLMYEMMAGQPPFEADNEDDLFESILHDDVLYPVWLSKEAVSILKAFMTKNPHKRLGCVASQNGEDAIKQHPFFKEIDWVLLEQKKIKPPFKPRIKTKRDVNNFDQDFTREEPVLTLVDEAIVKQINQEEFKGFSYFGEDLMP
As to the kind of experiment: Selectivity interaction (KinomeScan (DiscoverX)) EUB0000092b PRKCE. Conditions: at 10 µM.

Test [4] concerns the target T3, Inhibitor of nuclear factor kappa-B kinase subunit epsilon (Homo sapiens) (UniProt Q14164).
T3 sequence (whole entry): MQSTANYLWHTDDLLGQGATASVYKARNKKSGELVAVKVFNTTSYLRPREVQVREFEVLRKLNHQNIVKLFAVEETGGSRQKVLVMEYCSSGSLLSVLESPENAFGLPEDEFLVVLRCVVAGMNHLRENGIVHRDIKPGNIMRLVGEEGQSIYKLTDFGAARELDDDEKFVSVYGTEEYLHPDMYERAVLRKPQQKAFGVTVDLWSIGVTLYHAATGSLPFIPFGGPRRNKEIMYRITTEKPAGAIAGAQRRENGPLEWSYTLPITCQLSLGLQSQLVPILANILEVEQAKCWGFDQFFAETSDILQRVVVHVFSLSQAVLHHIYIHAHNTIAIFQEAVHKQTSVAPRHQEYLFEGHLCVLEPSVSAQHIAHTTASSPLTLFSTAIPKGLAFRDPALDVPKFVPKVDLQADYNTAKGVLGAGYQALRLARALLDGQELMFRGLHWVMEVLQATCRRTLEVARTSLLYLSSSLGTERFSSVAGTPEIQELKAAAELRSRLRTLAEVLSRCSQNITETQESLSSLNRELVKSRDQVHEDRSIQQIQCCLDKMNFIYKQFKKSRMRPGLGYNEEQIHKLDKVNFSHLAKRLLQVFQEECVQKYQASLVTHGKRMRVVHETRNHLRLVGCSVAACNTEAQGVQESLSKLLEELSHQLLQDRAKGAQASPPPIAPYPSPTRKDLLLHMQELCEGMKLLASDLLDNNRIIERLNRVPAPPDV
As to the kind of experiment: Selectivity interaction (KinomeScan (DiscoverX)) EUB0000655a IKBKE. Conditions: at 10 µM.

In test [5] the target is Vascular endothelial growth factor receptor 2 (Homo sapiens, UniProt P35968). As to the kind of experiment: Selectivity interaction (NovaScreen assay) EUB0001542aTs KDR.
For test [6], the target named is Insulin receptor-related protein (Homo sapiens) (UniProt P14616). In words: Selectivity interaction (KinomeScan (DiscoverX)) EUB0000666a INSRR. As to conditions: at 10 µM.
For test [7], the target named is Serine/threonine-protein kinase MARK2 (Homo sapiens) (UniProt Q7KZI7). In words: Selectivity interaction (ActivX KiNativ screen (kinase selectivity in THP-1 cell lysates)) EUB0000639a MARK2. It counts as subcellular. As to conditions: lysate, at 5 µM.
The target in test [8] is T4, Serine/threonine-protein kinase 17A (Homo sapiens) (UniProt Q9UEE5).
T4 sequence (whole entry): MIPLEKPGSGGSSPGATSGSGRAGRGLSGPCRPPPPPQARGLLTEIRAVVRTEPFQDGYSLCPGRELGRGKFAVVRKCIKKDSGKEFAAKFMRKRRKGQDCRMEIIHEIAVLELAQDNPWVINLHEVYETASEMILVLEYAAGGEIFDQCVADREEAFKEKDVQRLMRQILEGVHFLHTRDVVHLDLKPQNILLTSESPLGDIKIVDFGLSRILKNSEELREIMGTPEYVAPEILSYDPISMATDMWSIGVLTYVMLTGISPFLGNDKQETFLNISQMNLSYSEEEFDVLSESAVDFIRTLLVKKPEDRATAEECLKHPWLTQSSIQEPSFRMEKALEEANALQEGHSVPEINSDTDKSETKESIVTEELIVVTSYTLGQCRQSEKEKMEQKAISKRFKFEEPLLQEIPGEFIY
In words: Selectivity interaction (KinomeScan (DiscoverX)) EUB0000229b STK17A. Conditions: at 10 µM.

A value given as a limit tells only on which side of the number the result lay.

Chain of Serine/threonine-protein kinase VRK2 (Homo sapiens) (Q86Y07 whole entry): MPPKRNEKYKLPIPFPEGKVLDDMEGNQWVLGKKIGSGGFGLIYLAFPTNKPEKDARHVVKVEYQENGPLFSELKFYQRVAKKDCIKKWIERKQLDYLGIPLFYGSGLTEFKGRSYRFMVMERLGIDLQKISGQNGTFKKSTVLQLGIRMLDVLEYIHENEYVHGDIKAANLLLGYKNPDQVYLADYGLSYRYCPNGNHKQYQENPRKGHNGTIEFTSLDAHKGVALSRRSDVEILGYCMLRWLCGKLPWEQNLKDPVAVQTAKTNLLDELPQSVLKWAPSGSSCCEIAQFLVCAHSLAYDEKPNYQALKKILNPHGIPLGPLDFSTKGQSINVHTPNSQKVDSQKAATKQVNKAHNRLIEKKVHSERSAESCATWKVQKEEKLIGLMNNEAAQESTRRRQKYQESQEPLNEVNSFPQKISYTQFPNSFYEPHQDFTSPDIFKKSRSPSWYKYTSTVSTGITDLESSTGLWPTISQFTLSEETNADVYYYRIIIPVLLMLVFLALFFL
Chain of Insulin receptor-related protein (Homo sapiens) (P14616 27-742 limits assumed): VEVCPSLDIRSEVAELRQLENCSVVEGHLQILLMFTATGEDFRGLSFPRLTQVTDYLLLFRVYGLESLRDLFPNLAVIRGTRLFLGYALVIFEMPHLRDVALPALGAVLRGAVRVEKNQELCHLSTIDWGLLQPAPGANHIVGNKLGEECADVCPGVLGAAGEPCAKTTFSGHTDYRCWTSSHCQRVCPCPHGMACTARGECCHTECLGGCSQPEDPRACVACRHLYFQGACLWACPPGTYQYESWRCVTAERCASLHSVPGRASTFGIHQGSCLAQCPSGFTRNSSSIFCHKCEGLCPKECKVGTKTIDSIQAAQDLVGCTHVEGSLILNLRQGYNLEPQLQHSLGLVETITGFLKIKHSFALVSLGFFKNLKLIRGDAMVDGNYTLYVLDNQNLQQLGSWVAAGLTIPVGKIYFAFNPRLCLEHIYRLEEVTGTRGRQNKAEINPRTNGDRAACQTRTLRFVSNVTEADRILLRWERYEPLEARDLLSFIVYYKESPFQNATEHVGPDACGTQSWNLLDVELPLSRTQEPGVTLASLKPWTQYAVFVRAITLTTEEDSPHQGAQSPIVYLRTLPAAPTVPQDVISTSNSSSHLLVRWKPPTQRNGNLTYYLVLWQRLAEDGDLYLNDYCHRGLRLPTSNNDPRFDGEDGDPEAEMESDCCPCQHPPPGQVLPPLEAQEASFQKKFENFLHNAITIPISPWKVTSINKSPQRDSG
Chain of Insulin receptor-related protein (Homo sapiens) (P14616 747-1297 limits assumed): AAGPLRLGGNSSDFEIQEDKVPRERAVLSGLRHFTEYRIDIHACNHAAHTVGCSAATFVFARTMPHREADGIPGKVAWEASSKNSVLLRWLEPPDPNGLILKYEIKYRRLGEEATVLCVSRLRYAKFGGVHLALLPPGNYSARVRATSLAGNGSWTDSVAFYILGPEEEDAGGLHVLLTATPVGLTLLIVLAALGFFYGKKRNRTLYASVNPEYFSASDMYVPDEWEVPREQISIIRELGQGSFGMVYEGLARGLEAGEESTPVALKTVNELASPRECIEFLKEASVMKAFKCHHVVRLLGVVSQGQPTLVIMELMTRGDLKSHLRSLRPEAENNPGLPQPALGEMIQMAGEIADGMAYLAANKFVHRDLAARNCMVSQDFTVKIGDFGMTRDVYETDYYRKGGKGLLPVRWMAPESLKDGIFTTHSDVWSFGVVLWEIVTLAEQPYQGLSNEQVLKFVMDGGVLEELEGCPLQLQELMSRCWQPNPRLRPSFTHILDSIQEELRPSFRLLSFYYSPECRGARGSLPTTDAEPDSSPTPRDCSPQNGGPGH
Chain of Serine/threonine-protein kinase MARK2 (Homo sapiens) (Q7KZI7 whole entry): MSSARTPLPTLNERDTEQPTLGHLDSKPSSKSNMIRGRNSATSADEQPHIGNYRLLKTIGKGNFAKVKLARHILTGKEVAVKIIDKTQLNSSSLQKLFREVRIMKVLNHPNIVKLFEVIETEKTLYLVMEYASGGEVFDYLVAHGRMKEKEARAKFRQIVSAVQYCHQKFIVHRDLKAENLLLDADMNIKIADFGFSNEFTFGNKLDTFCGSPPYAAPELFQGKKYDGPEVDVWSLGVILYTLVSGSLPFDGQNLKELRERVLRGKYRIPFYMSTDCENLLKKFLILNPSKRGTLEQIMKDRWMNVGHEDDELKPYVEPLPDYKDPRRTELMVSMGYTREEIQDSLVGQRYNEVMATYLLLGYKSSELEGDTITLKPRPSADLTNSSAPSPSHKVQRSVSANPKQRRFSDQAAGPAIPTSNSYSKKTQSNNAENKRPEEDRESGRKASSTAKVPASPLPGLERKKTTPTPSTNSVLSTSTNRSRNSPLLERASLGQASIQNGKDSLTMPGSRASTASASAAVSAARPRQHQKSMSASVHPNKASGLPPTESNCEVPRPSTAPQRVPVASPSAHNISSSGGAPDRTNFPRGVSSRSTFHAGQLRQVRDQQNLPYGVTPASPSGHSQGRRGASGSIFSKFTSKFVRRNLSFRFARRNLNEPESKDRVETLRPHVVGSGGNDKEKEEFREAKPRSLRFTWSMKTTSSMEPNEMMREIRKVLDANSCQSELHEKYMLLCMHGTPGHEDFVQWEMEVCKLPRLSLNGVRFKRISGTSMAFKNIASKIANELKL
Chain of Vascular endothelial growth factor receptor 2 (P35968 whole entry): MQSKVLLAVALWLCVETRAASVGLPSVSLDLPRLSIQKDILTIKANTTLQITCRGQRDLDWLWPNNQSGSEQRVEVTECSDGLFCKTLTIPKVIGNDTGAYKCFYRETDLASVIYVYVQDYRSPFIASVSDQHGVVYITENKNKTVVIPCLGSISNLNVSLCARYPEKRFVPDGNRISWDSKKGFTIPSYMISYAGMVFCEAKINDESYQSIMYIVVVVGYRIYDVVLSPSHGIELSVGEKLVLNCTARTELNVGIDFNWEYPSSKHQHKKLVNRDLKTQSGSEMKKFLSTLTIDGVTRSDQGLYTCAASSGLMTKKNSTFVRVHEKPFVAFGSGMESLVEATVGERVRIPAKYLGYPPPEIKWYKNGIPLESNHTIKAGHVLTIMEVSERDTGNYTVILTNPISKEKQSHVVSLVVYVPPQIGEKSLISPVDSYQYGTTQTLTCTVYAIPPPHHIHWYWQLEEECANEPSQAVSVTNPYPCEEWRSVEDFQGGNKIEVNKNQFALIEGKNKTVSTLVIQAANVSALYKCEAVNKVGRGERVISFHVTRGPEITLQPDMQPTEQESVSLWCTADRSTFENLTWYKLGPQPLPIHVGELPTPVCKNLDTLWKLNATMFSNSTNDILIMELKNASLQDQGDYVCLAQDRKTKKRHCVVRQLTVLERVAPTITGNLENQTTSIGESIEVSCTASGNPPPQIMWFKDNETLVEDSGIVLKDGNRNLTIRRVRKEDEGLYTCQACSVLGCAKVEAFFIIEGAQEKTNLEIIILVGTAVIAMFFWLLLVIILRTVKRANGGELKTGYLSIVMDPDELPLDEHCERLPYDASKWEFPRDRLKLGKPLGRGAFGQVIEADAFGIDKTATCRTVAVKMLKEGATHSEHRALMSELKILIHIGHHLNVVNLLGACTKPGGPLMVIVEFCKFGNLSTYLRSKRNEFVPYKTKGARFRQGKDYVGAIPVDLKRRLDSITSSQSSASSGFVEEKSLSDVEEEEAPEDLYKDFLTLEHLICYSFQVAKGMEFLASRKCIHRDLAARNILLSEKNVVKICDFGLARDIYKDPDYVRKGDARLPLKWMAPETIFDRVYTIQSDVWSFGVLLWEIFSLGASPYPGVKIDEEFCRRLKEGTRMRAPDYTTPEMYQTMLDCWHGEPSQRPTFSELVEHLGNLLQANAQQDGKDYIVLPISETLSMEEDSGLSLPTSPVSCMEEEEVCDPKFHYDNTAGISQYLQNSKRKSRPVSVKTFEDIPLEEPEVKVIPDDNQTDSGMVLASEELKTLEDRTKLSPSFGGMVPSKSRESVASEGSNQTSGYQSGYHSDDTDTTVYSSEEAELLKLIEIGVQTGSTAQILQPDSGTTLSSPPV

On to `Cc1cc([C@@H](C)Nc2ccccc2C(=O)O)c2nc(N3CCOCC3)cc(=O)n2c1` [AZD-6482], for which the % of control in test [1] is 100%.
`Nc1cnc(N2CCc3cc(S(=O)(=O)Nc4c(F)cc(Cl)cc4F)cc(N4CCCC4=O)c32)nc1` [TP-020n] registered a % of control in test [2] of 100%.
In test [3], `CCC(=O)N1CCN(c2ccc(-n3c(=O)ccc4cnc5ccc(-c6cnc7ccccc7c6)cc5c43)cc2C(F)(F)F)CC1` gave a % of control of 86%.
Take `CN(C)CCOc1ccc(-c2nc(-c3ccncc3)c(-c3ccc4c(c3)CC/C4=N\O)[nH]2)cc1`: the % of control in test [4] worked out at 85%.
As a reminder, the IC50 is the concentration that gives 50% inhibition. Read a low IC50 as greater potency in that assay. Take `Cn1cc(Nc2nccc(N3CC4CCC(C3)N4C(=O)[C@@H]3CC3(F)F)n2)cn1`: in test [5], the 50% inhibitory concentration (IC50) is over 30 µM.
In turn, `O=C(NOC[C@H](O)CO)c1ccc(F)c(F)c1Nc1ccc(I)cc1F` returned a % of control in test [6] of 81%.
As for `CC[C@@H]1[C@H](F)C(=O)N[C@@H]1COc1nccc2cc(C(N)=O)c(OC)cc12` [ZIMLOVISERTIB], in test [7], the % of inhibition was found to be 45.6%.
In test [8], `COc1cc(N(C)c2ccnc3ccc(C(F)(F)F)cc23)cc(OC)c1OC` yielded a % binding of 92%.
